Assay results as given in patent publication US11278533B2, “Animal pest control method” (E.I. DU PONT DE NEMOURS AND COMPANY, priority 2007, dated 2022).

Test system: cat flea (Ctenocephalides felis)
Experiment: Test D: cat flea membrane feeding on treated bovine blood
Format: in vivo
Conditions: 72 h
Description: For evaluating control of the cat flea (Ctenocephalides felis), a test compound was solubilized in propylene glycol/glycerol formal (60:40) and then diluted in bovine blood to a final test rate of 30 ppm. The treated blood was placed in a tube, and the bottom of the tube was covered with a membrane. Approximately 10 adult cat fleas were allowed to feed through the membrane on the treated blood. The adult fleas were then evaluated for mortality 72 hours later.

**Q.** Which mortality at 30 ppm does the source give for Cc1cc(C2=NOC(c3cc(Cl)cc(Cl)c3)(C(F)(F)F)C2)ccc1C(=O)NCc1ccccn1 (centres unmarked) [Compound 1, 4-[5-(3,5-dichlorophenyl)-4,5-dihydro-5-(trifluoromethyl)-3-isoxazolyl]-2-methyl-N-(2-pyridinylmethyl)benzamide] here?
**A.** ≥ 50%

**Q.** Which mortality at 30 ppm does the source give for CSCCNC(=O)c1ccc(C2=NOC(c3cc(Cl)cc(Cl)c3)(C(F)(F)F)C2)cc1C (centres unmarked) [Compound 2, 4-[5-(3,5-dichlorophenyl)-4,5-dihydro-5-(trifluoromethyl)-3-isoxazolyl]-2-methyl-N-[2-(methylthio)ethyl]benzamide] here?
**A.** ≥ 50%

**Q.** With Cc1cc(C2=NOC(c3cc(Cl)cc(Cl)c3)(C(F)(F)F)C2)ccc1C(=O)NCC(=O)NCC(F)(F)F (centres unmarked) [Compound 3, 4-[5-(3,5-dichlorophenyl)-4,5-dihydro-5-(trifluoromethyl)-3-isoxazolyl]-2-methyl-N-[2-oxo-2-[(2,2,2-trifluoroethyl)amino]ethyl]benzamide] as the molecule, how does the mortality at 30 ppm read?
**A.** ≥ 50%

**Q.** Cc1cc(C2=NOC(c3cc(Cl)cc(Cl)c3)(C(F)(F)F)C2)ccc1C(=O)NCC[S+](C)[O-] (centres unmarked) [Compound 5, 4-[5-(3,5-dichlorophenyl)-4,5-dihydro-5-(trifluoromethyl)-3-isoxazolyl]-2-methyl-N-[2-(methylsulfinyl)ethyl]benzamide] was tested. Which mortality at 30 ppm did it give?
**A.** ≥ 50%

**Q.** How did the mortality at 30 ppm turn out when Cc1cc(C2=NOC(c3cc(Cl)cc(Cl)c3)(C(F)(F)F)C2)ccc1C(=O)NCCS(C)(=O)=O (centres unmarked) [Compound 6, 4-[5-(3,5-dichlorophenyl)-4,5-dihydro-5-(trifluoromethyl)-3-isoxazolyl]-2-methyl-N-[2-(methylsulfonyl)ethyl]benzamide] was run?
**A.** ≥ 50%
